The record followed here is paper PMC12257073 (Cancer Research Communications, 2025).

Molecules are shown by their SMILES. Values joined by “and” are separate entries in the source; they are usually repeats but may differ in a detail not shown here. Equal values may be shown once.

Experiment [1] has as its system newly diagnosed AML with mutations in TP53 and/or complex karyotype. Put plainly: Overall survival and duration of response (Kaplan–Meier). The format is in vivo, human. Conditions: for Response duration: No. of events / Response duration: median (95% CI): patients who achieved CR/CRh/CRi. The procedure:
Demographics were summarized by descriptive statistics. Duration of response was calculated from the date when composite CR was achieved to […], censoring patients who remained alive and relapse-free at the time of the last follow-up. OS was calculated from treatment start to all-cause death, censoring patients who were alive at the time of the last follow-up. Kaplan–Meier methodology was used to assess OS and duration of response.

The next experiment deals with TP53. Put plainly: TP53 variant allele frequency by serial targeted next-generation sequencing. In kind it is in vivo, human. The procedure:
Mutations in germline and serial bone marrow or blood samples were determined by targeted next-generation sequencing (NGS). NGS aligned read files are available in the NCBI’s Sequence Read Archive under accession PRJNA1236309. See Supplementary Methods for details.
Genomic DNA was isolated from cryopreserved cells with QIAmp DNA Mini Kit (Qiagen) and fragmented using ME220 Focused-ultrasonicator (Covaris; SCR_019818). Libraries were generated using xGen™ DNA Lib Prep MC UNI kit and target capture was done using xGen AML Cancer Hybridization Panel in conjunction with a 3 gene spike-in pool for ZRSR2, AXL, and ASXL2 (Integrated DNA Technologies). DNA library preparations were performed according to the manufacturer’s instructions and sequenced on an Illumina Novaseq (OSUCCC Genomics Shared Resource) (SCR_016387). Sequenced reads were aligned to the GRCh38 genome build using the Burrows-Wheeler Aligner (BWA) (SCR_010910). Picard Tools was used to perform UMI-consensus calling on the aligned reads. The Genome Analysis Toolkit (GATK) (SCR_001876) was used to realign insertions and deletions in the aligned reads and to perform base quality score recalibration for those realigned regions. GATK’s MuTect2 (SCR_026692) was used to perform variant calling. After variant calling, variants were annotated using SnpEff (SCR_005191) and vcfanno (SCR_024372) along with the dbsnp (SCR_002338), COSMIC (SCR_002260), and gnomad variant databases (SCR_014964). The Mucor3 algorithm was used as the baseline for integrative mutation assessment. Visual inspection of all variants was carried out using Integrative Genomics Viewer v.2.8 (Broad Institute).

[2] abbreviates: TP53-mutated patients, TP-0903 + decitabine, n = 20.
Where [3] appears, read: TP53-mutated patients, TP-0903 + decitabine.
The mark [4] stands for this setting: group 1, TP-0903 37 mg/day + decitabine, n = 15.
Setting [5] is: group 1, TP-0903 37 mg/day + decitabine.
[6] abbreviates: group 2, TP-0903 25 mg/day + decitabine, n = 12.
[7] abbreviates: group 2, TP-0903 25 mg/day + decitabine.
Where [8] appears, read: overall, TP-0903 + decitabine, n = 27.

As for `CN1CCN(Cc2ccc(Nc3ncc(Cl)c(Nc4ccccc4S(=O)(=O)N(C)C)n3)cc2)CC1.O=C(O)C(O)C(O)C(=O)O.O=C(O)C(O)C(O)C(=O)O` [TP-0903, 2-(5-chloro-2-(4-((4-methylpiperazin-1-yl)methyl)phenylamino)pyrimidin-4-yl)amino-N,N-dimethylbenzene-1-sulfonamide di-tartrate salt], the “OS: No. of events (deaths)” value stood at 13 in experiment [1] (setting [2]), 10 in experiment [1] (setting [4]), 7 in experiment [1] (setting [6]) and 17 in experiment [1] (setting [8]). The “OS: median (95% CI)” value in experiment [1] (setting [2]) is 10.0 (2.0–20.6) months; in experiment [1] (setting [4]), 7.6 (2.0–20.6) months; in experiment [1] (setting [6]), 7.5 months and 7.5 (1.1 – NE) months; in experiment [1] (setting [8]) it was 7.6 (3.3–13.4) months. For the same molecule, the “Response duration: No. of events” value came to 6 in experiment [1] (setting [3]); 3 in experiment [1] (setting [5]); 5 in experiment [1] (setting [7]); 8 in experiment [1] (overall, TP-0903 + decitabine). In addition, the “Response duration: median (95% CI)” value was 10.6 (3.3–NE) months in experiment [1] (setting [3]); 13.8 months and 13.8 (7.3–NE) months in experiment [1] (setting [5]); 4.6 months and 4.6 (1.8–NE) months in experiment [1] (setting [7]); 7.3 (3.3–13.8) months in experiment [1] (overall, TP-0903 + decitabine). Also, the “Change in TP53 VAF” value in the experiment with TP53 (patients who achieved CR, n = 5, P < 0.01) is reported as “significantly decreased”; in the experiment with TP53 (patients who achieved CRh/CRi/MLFS, n = 7, P < 0.01), “significantly decreased”; in the experiment with TP53 (patients who had SD, treatment failure, or early death, n = 3), “not significantly changed”.
